# Data: patent publication US12642805B2, “Use of oxygenated cholesterol sulfates for treating at least one of insulin resistance, diabetes, and prediabetes” (Medicis Pharmaceutical Corporation, priority 2020, dated 2026)
# Like-named read-outs stand apart in the source and are kept apart here.
# Legend:
# [1] = tested on: DNMT1/3a/3b and 9 other epigenetic enzymes; assay: epigenetic enzyme activity panel; type: biochemical
# Description: The major epigenetic regulation includes DNA and histone methylation, demethylation, acetylation, and deacetylation. The enzymes involved in the process are DNA and histone methyltransferases/demethylases, and acetyltransferases/deacetylases.
# [2] = single oral dose pharmacokinetic study in healthy and NASH subjects; type: in vivo, human; conditions: for AUC(0-t) / AUC(0-inf) / Cmax / half-life / Tmax / Vd/F: human, plasma, po
# Protocol: The present Example was a randomized, dose ranging, single dose safety and pharmacokinetic study of 25HC3S administered to subjects with NASH and control healthy subjects. […] For each cohort, 10 subjects with NASH were enrolled which were further classified into cirrhotic and non-cirrhotic. Each subject received only one dose of study treatment. The second cohort was dosed after a review of safety and tolerability data from Cohort 1.
# [3] = metabolite profiling of plasma and feces after oral dose; type: in vivo, rat; conditions: rats 75 mg/kg oral
# Description: Radiolabeled components in plasma and feces extracts were profiled and identified using radio-high performance liquid chromatography (HPLC) and high performance liquid chromatography/mass spectrometry (HPLC/MS) methods.
# [4] = Sprague Dawley, rat, in vivo, iv, 10 mg/kg
# Protocol: (§1) Samples were profiled using high performance liquid chromatography with radiodetection and metabolic characterization was performed using mass spectrometry and tandem mass spectrometry analysis.
# [5] = metabolite profiling of plasma, urine, feces after intravenous dose; conditions: rats 10 mg/kg intravenous 25HC3S
# Protocol: as §1
# [6] = 50 mg single oral dose, Healthy
# [7] = 200 mg single oral dose, Healthy
compound,measurement,setting,value
"CC(C)CCC[C@@H](C)[C@H]1CC[C@H]2[C@@H]3CC=C4C[C@@H](O)CC[C@]4(C)[C@H]3CC[C@]12C [Xol, Cholesterol]",effect on enzymatic activities,[1],did not significantly affect enzymatic activities
"CC(C)CCC[C@@H](C)[C@H]1CC[C@H]2[C@@H]3CC=C4C[C@@H](OS(=O)(=O)O)CC[C@]4(C)[C@H]3CC[C@]12C [Xol3S, Cholesterol 3-Sulfate]",effect on enzymatic activities,[1],did not significantly affect enzymatic activities
"C[C@H](CCCC(C)(C)O)[C@H]1CC[C@H]2[C@@H]3CC=C4C[C@@H](OS(=O)(=O)[O-])CC[C@]4(C)[C@H]3CC[C@]12C.[Na+] [25HC3S sodium, 25-hydroxycholesterol-3-sulfate sodium]","CL/F, Geometric Mean",[2]; [6],118.11 L/h
same,"CL/F, Mean",[2]; [6],122.35 L/h
same,"CL/F, Geometric Mean","[2]; 50 mg single oral dose, NASH",82.19 L/h
same,"CL/F, Mean","[2]; 50 mg single oral dose, NASH",85.29 L/h
same,"CL/F, Geometric Mean",[2]; [7],169.32 L/h
same,"CL/F, Mean",[2]; [7],171.25 L/h
same,"CL/F, Geometric Mean","[2]; 200 mg single oral dose, NASH",141.66 L/h
same,"CL/F, Mean","[2]; 200 mg single oral dose, NASH",143.19 L/h
same,AUC(0-t),"[2]; 50 mg, 50 mg single oral dose, Healthy, read-out: AUC0-12, Geometric Mean",497 ng·h/mL
same,AUC(0-t),"[2]; 50 mg, 50 mg single oral dose, Healthy, read-out: AUC0-12, Mean",528 ng·h/mL
same,AUC(0-t),"[2]; 50 mg, 50 mg single oral dose, Healthy, read-out: AUC0-last, Geometric Mean",450 ng·h/mL
same,AUC(0-t),"[2]; 50 mg, 50 mg single oral dose, Healthy, read-out: AUC0-last, Mean",477 ng·h/mL
same,AUC(0-inf),"[2]; 50 mg, 50 mg single oral dose, Healthy, read-out: AUCinf, Geometric Mean",423 ng·h/mL
same,AUC(0-inf),"[2]; 50 mg, 50 mg single oral dose, Healthy, read-out: AUCinf, Mean",439 ng·h/mL
same,Cmax,"[2]; 50 mg, 50 mg single oral dose, Healthy, read-out: Cmax, Geometric Mean",90.9 ng/mL
same,Cmax,"[2]; 50 mg, 50 mg single oral dose, Healthy, read-out: Cmax, Mean",94 ng/mL
same,half-life,"[2]; 50 mg, 50 mg single oral dose, Healthy, read-out: T1/2, Geometric Mean (converted)",1.89 h
same,half-life,"[2]; 50 mg, 50 mg single oral dose, Healthy, read-out: T1/2, Mean (converted)",1.91 h
same,Tmax,"[2]; 50 mg, 50 mg single oral dose, Healthy, read-out: Tmax, Geometric Mean",2.83 h
same,Tmax,"[2]; 50 mg, 50 mg single oral dose, Healthy, read-out: Tmax, Mean",3.01 h
same,Vd/F,"[2]; 50 mg, 50 mg single oral dose, Healthy, read-out: Vz/F, Geometric Mean",322 L
same,Vd/F,"[2]; 50 mg, 50 mg single oral dose, Healthy, read-out: Vz/F, Mean",325 L
same,AUC(0-t),"[2]; 50 mg, 50 mg single oral dose, NASH, read-out: AUC0-12, Geometric Mean",598 ng·h/mL
same,AUC(0-t),"[2]; 50 mg, 50 mg single oral dose, NASH, read-out: AUC0-12, Mean",623 ng·h/mL
same,AUC(0-t),"[2]; 50 mg, 50 mg single oral dose, NASH, read-out: AUC0-last, Geometric Mean",476 ng·h/mL
same,AUC(0-t),"[2]; 50 mg, 50 mg single oral dose, NASH, read-out: AUC0-last, Mean",513 ng·h/mL
same,AUC(0-inf),"[2]; 50 mg, 50 mg single oral dose, NASH, read-out: AUCinf, Geometric Mean",608 ng·h/mL
same,AUC(0-inf),"[2]; 50 mg, 50 mg single oral dose, NASH, read-out: AUCinf, Mean",636 ng·h/mL
same,Cmax,"[2]; 50 mg, 50 mg single oral dose, NASH, read-out: Cmax, Geometric Mean",108 ng/mL
same,Cmax,"[2]; 50 mg, 50 mg single oral dose, NASH, read-out: Cmax, Mean",113 ng/mL
same,half-life,"[2]; 50 mg, 50 mg single oral dose, NASH, read-out: T1/2, Geometric Mean (converted)",1.67 h
same,half-life,"[2]; 50 mg, 50 mg single oral dose, NASH, read-out: T1/2, Mean (converted)",1.67 h
same,Tmax,"[2]; 50 mg, 50 mg single oral dose, NASH, read-out: Tmax, Geometric Mean",2.31 h
same,Tmax,"[2]; 50 mg, 50 mg single oral dose, NASH, read-out: Tmax, Mean",2.41 h
same,Vd/F,"[2]; 50 mg, 50 mg single oral dose, NASH, read-out: Vz/F, Geometric Mean",198 L
same,Vd/F,"[2]; 50 mg, 50 mg single oral dose, NASH, read-out: Vz/F, Mean",203 L
same,AUC(0-t),"[2]; 200 mg, 200 mg single oral dose, Healthy, read-out: AUC0-12, Geometric Mean",1160 ng·h/mL
same,AUC(0-t),"[2]; 200 mg, 200 mg single oral dose, Healthy, read-out: AUC0-12, Mean",1180 ng·h/mL
same,AUC(0-t),"[2]; 200 mg, 200 mg single oral dose, Healthy, read-out: AUC0-last, Geometric Mean",1170 ng·h/mL
same,AUC(0-t),"[2]; 200 mg, 200 mg single oral dose, Healthy, read-out: AUC0-last, Mean",1190 ng·h/mL
same,AUC(0-inf),"[2]; 200 mg, 200 mg single oral dose, Healthy, read-out: AUCinf, Geometric Mean",1180 ng·h/mL
same,AUC(0-inf),"[2]; 200 mg, 200 mg single oral dose, Healthy, read-out: AUCinf, Mean",1190 ng·h/mL
same,Cmax,"[2]; 200 mg, 200 mg single oral dose, Healthy, read-out: Cmax, Geometric Mean",256 ng/mL
same,Cmax,"[2]; 200 mg, 200 mg single oral dose, Healthy, read-out: Cmax, Mean",260 ng/mL
same,half-life,"[2]; 200 mg, 200 mg single oral dose, Healthy, read-out: T1/2, Geometric Mean (converted)",1.72 h
same,half-life,"[2]; 200 mg, 200 mg single oral dose, Healthy, read-out: T1/2, Mean (converted)",1.75 h
same,Tmax,"[2]; 200 mg, 200 mg single oral dose, Healthy, read-out: Tmax, Geometric Mean",2.53 h
same,Tmax,"[2]; 200 mg, 200 mg single oral dose, Healthy, read-out: Tmax, Mean",2.67 h
same,Vd/F,"[2]; 200 mg, 200 mg single oral dose, Healthy, read-out: Vz/F, Geometric Mean",420 L
same,Vd/F,"[2]; 200 mg, 200 mg single oral dose, Healthy, read-out: Vz/F, Mean",434 L
same,AUC(0-t),"[2]; 200 mg, 200 mg single oral dose, NASH, read-out: AUC0-12, Geometric Mean",1500 ng·h/mL
same,AUC(0-t),"[2]; 200 mg, 200 mg single oral dose, NASH, read-out: AUC0-12, Mean",1540 ng·h/mL
same,AUC(0-t),"[2]; 200 mg, 200 mg single oral dose, NASH, read-out: AUC0-last, Geometric Mean",1540 ng·h/mL
same,AUC(0-t),"[2]; 200 mg, 200 mg single oral dose, NASH, read-out: AUC0-last, Mean",1580 ng·h/mL
same,AUC(0-inf),"[2]; 200 mg, 200 mg single oral dose, NASH, read-out: AUCinf, Geometric Mean",1410 ng·h/mL
same,AUC(0-inf),"[2]; 200 mg, 200 mg single oral dose, NASH, read-out: AUCinf, Mean",1430 ng·h/mL
same,Cmax,"[2]; 200 mg, 200 mg single oral dose, NASH, read-out: Cmax, Geometric Mean",319 ng/mL
same,Cmax,"[2]; 200 mg, 200 mg single oral dose, NASH, read-out: Cmax, Mean",333 ng/mL
same,half-life,"[2]; 200 mg, 200 mg single oral dose, NASH, read-out: T1/2, Geometric Mean (converted)",2.2 h
same,half-life,"[2]; 200 mg, 200 mg single oral dose, NASH, read-out: T1/2, Mean (converted)",2.51 h
same,Tmax,"[2]; 200 mg, 200 mg single oral dose, NASH, read-out: Tmax, Geometric Mean",2.65 h
same,Tmax,"[2]; 200 mg, 200 mg single oral dose, NASH, read-out: Tmax, Mean",2.91 h
same,Vd/F,"[2]; 200 mg, 200 mg single oral dose, NASH, read-out: Vz/F, Geometric Mean",449 L
same,Vd/F,"[2]; 200 mg, 200 mg single oral dose, NASH, read-out: Vz/F, Mean",540 L
"C[C@H](CCCC(C)(C)O)[C@H]1CC[C@H]2[C@@H]3CC=C4C[C@@H](O)CC[C@]4(C)[C@H]3CC[C@]12C [25HC, 25-Hydroxycholesterol, reference compound]",relative observed intensity (ROI) in plasma,[3]; 2 hour post-dose,37%
same,% of total dose in feces,[3]; pools 0 to 168 hours,1.9%
same,"detection in plasma, urine, or feces samples",[4],Neither desmosterol sulfate nor 25-hydroxycholesterol was detected
"C[C@@H](CO)CCC[C@@H](C)[C@H]1CC[C@H]2[C@@H]3CC=C4C[C@@H](O)CC[C@]4(C)[C@H]3CC[C@]12C [27HC, 27-Hydroxycholesterol]",effect on enzymatic activities,[1],no effect on other enzymes
desmosterol sulfate,"detection in plasma, urine, or feces samples",[5],Neither desmosterol sulfate nor 25-hydroxycholesterol was detected
